Measurements reported in US9302014B2, “Cell-penetrating peptides having a central hydrophobic domain” (Medical Research Council, priority 2011, dated 2016).
Non-standard residues stand in square brackets, D forms with d. No end group written: not given here. Ahx = NCCCCCC(=O)O; βAla = NCCC(=O)O

Key:
dystrophin = assay: In vivo exon skipping and dystrophin production in mdx mice (combined RNA and protein read-outs); conditions: lead PPMO comparison; TA, quadriceps, diaphragm and heart; 8 week old mdx mice, 12.5 mg/kg IV, 2 weeks
From the text: Given the potency of Pip5e-PMO in heart tissue, the aim of altering the sequence of the hydrophobic core (whilst maintaining the 5-aa length) was to identify peptides that might be more efficient at lower doses. These modifications included inversion of the hydrophobic region (Pip6a), substitution of tyrosine by isoleucine (Pip6b), substitution of glutamine in the Pip6a sequence by displacement of the arginine immediately flanking the core in the first arginine-rich flanking region (Pip6e), and a scrambled hydrophobic core sequence (Pip6f). All Pip6 peptide-PMO conjugates were administered to mdx mice as single 12.5 mg/kg intravenous injections via the tail vein and tissues were harvested 2 weeks later and assessed for activity at both RNA and protein levels. […]
Immunohistochemical staining (data not shown) was used to visualise the production of dystrophin protein (and its correct re-location at the sarcolemma) and RT-PCR was used to detect exon-skipped products in treated mdx muscle groups. qPCR allows for the quantification of the spliced product and Western blots were used to quantify the amount of dystrophin protein produced in muscles from treated mdx mice as compared with C57BL10 and untreated mdx controls. […]

dystrophin exon 23 = assay: Exon skipping in differentiated mouse H2K mdx myotubes (nested RT-PCR, densitometry); assay type: cell-based; conditions: Example 5, conjugate 0.125 to 2.0 μM, no transfection agent
Description: The exon skipping potential of Pip6-PMO conjugates was evaluated in differentiated mouse H2K mdx myotubes in the absence of any transfection agent (FIG. 1) at concentrations ranging from 0.125 μM to 1 μM. […] In the case of Pip6 sequences, the flanking arginine-rich sequences are identical (with the exception of Pip6e, which is identical except for one arginine immediately preceding the core which is displaced into the second position of the core). […] Note that we have previously shown that major changes in in vitro exon skipping activities are correlated instead with the total numbers of arginine residues [Saleh, A. F., et al., Synthesis and splice-redirecting activity of branched, arginine-rich peptide dendrimer conjugates of peptide nucleic acid oligonucleotides. Bioconjug Chem, 2010. 21(10): p. 1902-11.].
H2K mdx myotubes are derived from H2K mdx myoblasts obtained from the EDL muscle of a male H2K mdx f2 mouse. The cells are dystrophin deficient and conditionally immortal due to thermolabile simian virus 40 large tumor antigen (tsA58) expression. The myoblasts proliferate at 33° C. (10% CO2) in rich culture and differentiate into myotubes at 37° C. in media with horse serum.
H2K mdx myotubes were prepared and incubated with peptide-PNA and peptide-PMO conjugates in the absence of any transfection agent by the methods described previously (Wang, Q, Yin, H, et aL (2010) In vitro evaluation of novel antisense oligonucleotides is predictive of in vivo exon skipping activity for Duchenne muscular dystrophy) but with minor variations.
Myotubes were obtained from confluent H2K mdx cells seeded in gelatine coated 24-well plates following 2 days of serum deprivation (DMEM with 5% horse serum). The conjugates were incubated with myotubes for 4 h in 0.5 mL OptiMEM and then replaced by 1 mL of DMEM/5% horse serum media for further incubation. After 20 h myotubes were washed twice with PBS and total RNA was extracted with 0.5 mL of TRI Reagent (Sigma, UK). RNA preparations were treated with RNAse free DNAse (2U) and Proteinase K ([…]) prior to RT-PCR analysis. RT-PCR was carried out in 25 μL with 1 μg RNA template using SuperScript III One-Step RTPCR System with Platinum Taq DNA polymerase (Invitrogen) primed by forward primer 5′CAG AAT TCT GCC AAT TGC TGAG3′ [SEQ ID NO:312] and reverse primer 5′TTC TTC AGC TTG TGT CAT CC3′ [SEQ ID NO:313]. The initial cDNA synthesis was performed at 55° C. for 30 min followed by 30 cycles of 95° C. for 30 sec, 55° C. for 1 min and 68° C. for 80 sec. RT PCR product ([…]) was then used as the template for secondary PCR performed in 25 μL with 0.5 U Super TAQ polymerase (HT Biotechnologies) and primed by forward primer 5′CCCAGTCTACCACCCTATCAG AGC3′ [SEQ ID NO:314] and reverse primer 5′CCT GCC TTT AAG GCT TCC TT3′ [SEQ ID NO:315]. The cycling conditions were 95° C. for 1 min, 57° C. for 1 min and 72° C. for 80 sec for 25 cycles. Products were examined by 2% agarose gel and after scanning using Gene Tools Analysis Software (SynGene) the relative amount of exon 23 skipping was expressed as a percentage at a given concentration of conjugates averaged over duplicates of three experiments.
H2K mdx myotubes were prepared and incubated with peptide-PMO conjugates in the absence of any transfection agent at concentrations of 0.125, 0.25, 0.5 and 1.0 μM by the method described previously [Yin, H., et al., Pip5 transduction peptides direct high efficiency oligonucleotide-mediated dystrophin exon skipping in heart and phenotypic correction in mdx mice. Mol Ther, 2011. 19(7): p. 1295-303.]. The products of nested RT-PCR from total isolated RNA were examined by electrophoresis on a 2% agarose gel. Quantification of Δ23 transcript levels was calculated using densitometry. […]

Substance: Pip9d2: Pip9 series peptide (SEQ ID Nos 320-328) conjugated to PMODMD (R[Ahx]RR[βAla]RFQILY[βAla]R[Ahx]R[βAla]; also: conjugated to PMO (PMODMD))
- levels of exon-skipped dystrophin RNA and protein (dystrophin): negligible dystrophin production
- exon skipping activity (Δ23 skipping) in mdx muscle cells (dystrophin exon 23): high exon skipping activity
